US10221163B2 (priority 2015, dated 2019)
Where two headings read alike, the source gives them in different places.

How the values were obtained:
[1] = molecular target: IMP-1 (Serratia marcescens, UniProt P52699); assay: biochemical; assay type: biochemical; details: fluorescence assay, CCF2-FA substrate, 2 pM enzyme, 2 hours at 25° C.; read-out: IMP-1 IC50
How it was run: (§1)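 Fluorescence assay of metallo-β-lactamase activity using CCF2-FA, a cephalosporin-linked 7-hydroxycoumarin–fluorescein substrate. Inhibitor, enzyme and substrate were incubated together for 2 hours at 25° C. IC50 came from a 4-parameter fit of inhibition versus inhibitor concentration.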

[2] = molecular target: NDM-1 (Klebsiella pneumoniae, UniProt C7C422); assay: biochemical; assay type: biochemical; details: fluorescence assay, CCF2-FA substrate, 1 pM enzyme, 2 hours at 25° C.; read-out: NDM-1 IC50
How it was run: as §1

[3] = molecular target: VIM-1 (Pseudomonas aeruginosa (strain ATCC 15692 / DSM 22644 / CIP 104116 / JCM 14847 / LMG 12228 / 1C / PRS 101 / PAO1), UniProt A0A0F7KYQ8); assay: biochemical; details: CCF2-FA substrate, 30 pM enzyme, 2 hours at 25° C.
How it was run: as §1

[4] = tested on: Escherichia coli expressing NDM-1 (CLB30005, CLB30016); assay type: cell-based; details: with imipenem 1 μg/ml; 95% inhibition of bacterial growth
How it was run: (§2)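 Growth by absorbance after 22–24 h at 35°C defined the read-out, with imipenem fixed at 1 μg/ml alongside compound. Inocula came from overnight blood-agar colonies at 35°C, resuspended in saline and diluted 1:100 in 1.1×CAMHB.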

[5] = tested on: Klebsiella pneumoniae expressing VIM-1 (IHMA599644); assay type: cell-based; details: with imipenem 1 μg/ml; 95% inhibition of bacterial growth
How it was run: as §2

[6] = tested on: Serratia marcescens expressing IMP-1 (CL5741); assay type: cell-based; details: with imipenem 1 μg/ml; 95% inhibition of bacterial growth
How it was run: as §2

[7] = tested on: Pseudomonas aeruginosa efflux+ (MB9798), IMP-1; assay type: cell-based; details: concentration restoring susceptibility to imipenem at 2 μg/mL in the presence of a class A, C, D serine β-lactamase inhibitor closely related to relebactam
How it was run: (§3)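 Microbroth MIC tests in PAO1-background strains with fixed imipenem and/or ceftazidime, usually at the CLSI breakpoint, plus fixed class A/C β-lactamase inhibitor against AmpC. MBL inhibitor titrated; concentration restoring susceptibility recorded and compared as fold difference between efflux+ MB9798 and efflux− MB9799.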

[8] = tested on: Pseudomonas aeruginosa efflux− (MB9799), IMP-1; assay type: cell-based; details: concentration restoring susceptibility to imipenem at 2 μg/mL in the presence of a class A, C, D serine β-lactamase inhibitor closely related to relebactam
How it was run: as §3

[9] = tested on: Pseudomonas aeruginosa MB9798 vs MB9799; details: ratio MITC95 PA_9798/MITC95 PA_9799
How it was run: as §3

[10] = fluorescence assay, read-out: VIM-1 IC50

Chain of IMP-1 (P52699 whole entry, looked up, species assumed): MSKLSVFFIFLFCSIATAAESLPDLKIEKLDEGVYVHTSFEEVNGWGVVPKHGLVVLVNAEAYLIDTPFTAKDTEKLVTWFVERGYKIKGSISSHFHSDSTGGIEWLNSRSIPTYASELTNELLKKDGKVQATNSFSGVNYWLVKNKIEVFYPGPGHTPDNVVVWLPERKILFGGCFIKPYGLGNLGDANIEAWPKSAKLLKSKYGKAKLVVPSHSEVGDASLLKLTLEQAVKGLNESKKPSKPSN
Chain of NDM-1 (C7C422 whole entry, looked up, species assumed): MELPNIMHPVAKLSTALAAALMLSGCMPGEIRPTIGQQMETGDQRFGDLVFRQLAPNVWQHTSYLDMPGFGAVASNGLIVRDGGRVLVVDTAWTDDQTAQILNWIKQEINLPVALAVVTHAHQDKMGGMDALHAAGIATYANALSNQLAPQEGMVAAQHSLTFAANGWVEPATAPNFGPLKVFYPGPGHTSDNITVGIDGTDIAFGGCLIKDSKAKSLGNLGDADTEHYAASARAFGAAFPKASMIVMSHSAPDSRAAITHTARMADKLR

Row | SMILES | IC50 [1] [nM] | IC50 [2] [nM] | IC50 [3, 10] [nM] | Escherichia coli expressing NDM-1 (CLB30016) MITC95 [4] [µM] | Klebsiella pneumoniae expressing VIM-1 (IHMA599644) MITC95 [5] [µM] | Serratia marcescens expressing IMP-1 (CL5741) MITC95 [6] [µM] | P. aeruginosa expressing IMP-1, efflux + (MB9798) MITC95 [7] [µM] | P. aeruginosa expressing IMP-1, efflux − (MB9799) MITC95 [8] [µM] | Efflux ratio [9] | IC50 ([3]; VIM-1 IC50, fluorescence assay) [nM]
1 | Nc1ncccc1-c1ccc(S(=O)(=O)NC[C@@H](N)CO)c(S(N)(=O)=O)c1-c1nn[nH]n1 [Example 214, (R)-N1-(2-amino-3-hydroxypropyl)-4-(2-amino-pyridin-3-yl)-3-(2H-tetrazol-5-yl)benzene-1,2-disulfonamide] | 8.49 | 0.566 | 0.732 | 0.7813 | 3.125 | 1.563 | 12.5 | 1.563 | 8.00 | 
2 | NC[C@H](CO)NS(=O)(=O)c1ccc(-c2cccnc2N)c(-c2nn[nH]n2)c1S(N)(=O)=O [Example 215, (R)-N1-(1-amino-3-hydroxypropan-2-yl)-4-(2-aminopyridin-3-yl)-3-(2H-tetrazol-5-yl)benzene-1,2-disulfonamide] | 2.12 | 0.175 | 0.222 | 0.1953 | 3.125 | 0.3906 | 1.563 | 1.563 | 1.00 | 
3 | Nc1ncccc1-c1ccc(S(=O)(=O)N[C@H]2C[C@@H]2N)c(S(N)(=O)=O)c1-c1nn[nH]n1 [Example 216, N1-((1S)-2-amino-cyclopropyl)-4-(2-aminopyridin-3-yl)-3-(2H-tetrazol-5-yl)benzene-1,2-disulfonamide] | 1.83 | 0.237 |  | 0.1953 | 3.125 | 0.7813 | 6.25 | 1.563 | 4.00 | 0.269
4 | Nc1ccc(-c2ccc(S(=O)(=O)NCCc3ncc[nH]3)c(S(N)(=O)=O)c2-c2nn[nH]n2)cn1 [Example 218, N^1-(2-(1H-imidazol-2-yl)ethyl)-4-(6-aminopyridin-3-yl)-3-(2H-tetrazol-5-yl)benzene-1,2-disulfonamide] | 0.694 | 0.786 |  | 0.1953 | 3.125 | 0.7813 | 25 | 1.563 | 15.99 | 0.549
5 | Nc1cncc(-c2ccc(S(=O)(=O)N[C@@H]3CCNC3)c(S(N)(=O)=O)c2-c2nn[nH]n2)c1 [Example 219, (R)-4-(5-aminopyridin-3-yl)-N1-(pyrrolidin-3-yl)-3-(2H-tetrazol-5-yl)benzene-1,2-disulfonamide] | 1.93 | 0.366 | 0.209 | 1.563 | 1.563 | 1.563 | 1.563 | 1.563 | 1.00 | 
6 | NS(=O)(=O)c1c(S(=O)(=O)N[C@@H]2CCNC2)ccc(-c2cccnc2N2CCNCC2)c1-c1nn[nH]n1 [Example 220, (R)-4-(2-(piperazin-1-yl)pyridin-3-yl)-N1-(pyrrolidin-3-yl)-3-(2H-tetrazol-5-yl)benzene-1,2-disulfonamide] | 35.8 | 1.57 | 0.442 | 1.563 | 1.563 | 3.125 | 6.25 | 1.563 | 4.00 | 
7 | C[C@H](CN)NS(=O)(=O)c1ccc(-c2cncc(N)c2)c(-c2nn[nH]n2)c1S(N)(=O)=O [Example 221, (R)—N1-(1-aminopropan-2-yl)-4-(5-aminopyridin-3-yl)-3-(2H-tetrazol-5-yl)benzene-1,2-disulfonamide] | 0.688 | 0.281 | 0.152 | 1.563 | 6.25 | 1.563 | 1.563 | 1.563 | 1.00 | 
8 | NC[C@H](O)CNS(=O)(=O)c1ccc(-c2ccncc2N)c(-c2nn[nH]n2)c1S(N)(=O)=O [Example 222, (S)—N1-(3-amino-2-hydroxypropyl)-4-(3-aminopyridin-4-yl)-3-(2H-tetrazol-5-yl)benzene-1,2-disulfonamide] | 1.19 | 0.311 | 0.445 | 0.3906 | 3.125 | 1.563 | 1.563 | 1.563 | 1.00 | 
9 | NC[C@H](N)CNS(=O)(=O)c1ccc(-c2cnccc2N)c(-c2nn[nH]n2)c1S(N)(=O)=O [Example 223, (S)-4-(4-aminopyridin-3-yl)-N1-(2,3-diaminopropyl)-3-(2H-tetrazol-5-yl)benzene-1,2-disulfonamide] | 4.51 | 1.75 |  | 0.09766 | 0.3906 | 0.3906 | 1.563 | 0.7813 | 2.00 | 1.41
10 | NS(=O)(=O)c1c(S(=O)(=O)N[C@@H]2CCNC2)ccc(-c2cccc(-c3nc[nH]n3)c2)c1-c1nn[nH]n1 [Example 225, (R)-N4-(pyrrolidin-3-yl)-2-(2H-tetrazol-5-yl)-3′-(1H-1,2,4-triazol-3-yl)-[1,1′-biphenyl]-3,4-disulfonamide] | 0.11 | 0.0256 | 0.0561 | 3.125 | 3.125 | 1.563 | 1.563 | 1.563 | 1.00 | 
11 | N[C@@H](CO)CNS(=O)(=O)c1ccc(-c2cccc(C3N=CN=N3)c2)c(-c2nn[nH]n2)c1S(N)(=O)=O (stereo partly drawn) [Example 226, N4-((R)-2-amino-3-hydroxypropyl)-2-(2H-tetrazol-5-yl)-3′-(3H-1,2,4-triazol-3-yl)-[1,1′-biphenyl]-3,4-disulfonamide] | 3.24 | 0.747 | 0.948 | 6.25 | 12.5 | 3.125 | 6.25 | 3.125 | 2.00 | 
12 | NCC(CN)NS(=O)(=O)c1ccc(-c2cccc(-c3nc[nH]n3)c2)c(-c2nn[nH]n2)c1S(N)(=O)=O [Example 227, N4-(1,3-diaminopropan-2-yl)-2-(2H-tetrazol-5-yl)-3′-(1H-1,2,4-triazol-3-yl)-[1,1′-biphenyl]-3,4-disulfonamide] | 0.165 | 0.048 | 0.137 | 1.563 | 3.125 | 1.563 | 1.563 | 1.563 | 1.00 | 
